Read-outs that look alike come from different tables or passages of the source.
Assays:
[1] = tested on: glioma stem cell line U3013; experiment: In vitro cancer cell and CSC viability assay (ATP quantification, CellTiterGlo); format: cell-based, human; conditions: for EC50: Homo sapiens, U3013, 24 hours exposure, read-out: In vitro efficacy (viability) EC50; for IC95 for cell death: glioblastoma cells (U3013); for potency with respect to S10 (viability): individual isomers of racemic S10
Method: The ability of Examples S1-S23 to selectively induce cytotoxicity in glioma/glioblastoma cancer cells or glioma/glioblastoma cancer stem cells was determined by quantification of ATP production in glioma stem cell line U3013 in the presence of using CellTiterGlo reagent (Promega). Cells were exposed to compound in serial dilution in the range 1 nM to 50 µM for 24 hours and viability assessed with respect to negative control (dmso, no cell death) and positive control (staurosporine, full cell death). […] The EC50 of S10 remained largely similar at 2, 3 and 4 days of incubation. […] The individual isomers (S21-S23) of racemic S10 were evaluated in order to determine the enantiospecific pharmacology of the individual isomers.
Negative (100% DMSO) and positive (10 mM S10 in 100% DMSO) controls were placed in rows 1-4 and 5-8, respectively, of column 12. The wells were diluted with 190 μl of the corresponding growth media and 5 μl of each well of compound solution transferred to quadruplicate wells of a sterile 384-well black clear bottom plate (BD Falcon) containing GSC at 70% confluency in 45 μl growth media. The plate was incubated for 24 hours, after which the plate was removed from the incubator and each well imaged in bright-field using an Operetta Imaging system (PerkinElmer) at 37° C. and 5% CO2 to determine vacuole accumulation at each concentration. The plate was then allowed to cool to room temperature and each well treated with 25 μl freshly CellTiterGlo (Promega) reagent. The plate was shaken for 15 minutes and luminescence measured using a Victor3 (Perkin Elmer) microtiterplate reader. Total luminescence was normalized relative to control and curve fitting performed using GraphPad Prism (v6.02) software.

[2] = Pharmacokinetic evaluation of Vacquinol-1 stereoisomers, plasma and brain; format: in vivo, NMRI (SR/RS) or BALB/c (Vrac) mice; conditions: for Kp / AUC(0-t): NMRI (single stereoisomers SR/RS), BALB/c (racemate), mouse; for Kp: brain and plasma, 20 mg/kg, after oral dosing, read-out: Cmax exposures ratio (Cmax(brain)/Cmax(plasma)); for AUC(0-t): brain, read-out: AUClast Brain
Method: The pharmacokinetics of Vacquinol-1 (racemic), Vacquinol-1RS and Vacquinol-1SR, were determined in NMRI (SR/RS) or BALB/c (Vrac) mice following single intravenous (i.v.) or per oral (p.o) administration of 2 or 20 mg/kg Vacquinol-1, respectively. Blood and brain samples were taken from animals at the following nominal time points: 15, 30, and 60 minutes, and 2, 4, 6, 8, 24, 48, 72 and 144 hours after dosing (n=3/time-point). Bioanalytical quantification of Vacquinol-1 was analysed in plasma and brain samples by a UPLC-MS/MS.
Pharmacokinetics were calculated by non-compartmental analysis (NCA) from composite (mean) profiles. Nominal sampling times and dose levels have been used for the NCA calculations.

U87 glioma cell = conditions: at concentrations of 10 micromolar; cited from earlier work
[3] = tested on: glioma stem cell line U3013; experiment: In vitro cancer cell and CSC viability assay (ATP quantification, CellTiterGlo); format: cell-based; conditions: Homo sapiens; 3000 cells/cm2, after 24 hours; read-out: EC50, viability of GSCs

Structure (SMILES)	EC50 [1]	IC95 for cell death [1]	potency with respect to S10 (viability) [1]	AUClast Plasma ([2]; 2 mg/kg i.v., mice)	Cmax Brain ([2]; 2 mg/kg i.v., mice)	tlast Brain ([2]; 2 mg/kg i.v., mice)	tlast Plasma ([2]; 2 mg/kg i.v., mice)	AUClast Plasma ([2]; 20 mg/kg p.o., mice)	Cmax Brain ([2]; 20 mg/kg p.o., mice)	tlast Brain ([2]; 20 mg/kg p.o., mice)	tlast Plasma ([2]; 20 mg/kg p.o., mice)	Kp [2]	AUC(0-t) ([2]; iv, 2 mg/kg i.v., mice)	AUC(0-t) ([2]; po, 20 mg/kg p.o., mice)	AUClast Brain ([2]; 20 mg/kg p.o., mice)	reduction of U87 glioma cell viability (U87 glioma cell)	EC50 [3]
O[C@H](c1cc(-c2ccc(Cl)cc2)nc2ccccc12)[C@@H]1CCCCN1 [Compound S20, (R)-(2-(4-chlorophenyl)quinolin-4-yl)((S)-piperidin-2-yl)methanol]	1.72 µM	8.9 µM	equal or increased potency	62000 ng·h/mL	1970 ng/mL	144 h	144 h	246000 ng·h/mL	4840 ng/mL	144 h	144 h	2.2	52700 ng·h/mL	400000 ng·h/mL			
O[C@@H](c1cc(-c2ccc(Cl)cc2)nc2ccccc12)[C@H]1CCCCN1 [Compound S21, (S)-(2-(4-chlorophenyl)quinolin-4-yl)((R)-piperidin-2-yl)methanol]	2.67 µM		equal or increased potency	14100 ng·h/mL	777 ng/mL	72 h	72 h	183000 ng·h/mL	1490 ng/mL	144 h	144 h	0.7	9050 ng·h/mL		157000 ng·h/mL		
O[C@@H](c1cc(C(F)(F)F)nc2c(C(F)(F)F)cccc12)[C@H]1CCCCN1 (racemic) [mefloquine, (2,8-bis(trifluoromethyl)quinolin-4-yl)(piperidin-2-yl)methanol, reference compound]		25.2 µM														roughly 50%	
Cn1nnc2c(C(N)=O)ncn2c1=O [temozolomide, reference compound]																	139 µM
